The structures appear in SMILES notation.

This is an account of results in US5589474A, “Dibenzothiazepinthione as antiviral agents” (Glaxo Wellcome Inc., priority 1991, dated 1996).

Test [1] relates to HIV. The experiment in a line: HeLa-CD4 plaque reduction assay (HIV in vitro). The note with it: Human immunodeficiency virus 1. Type of test: cell-based. A general note: Plaques are areas of infected cells; plaque reduction assays count them against a control.
In test [2] the test system is HIV. The experiment in a line: HIV (in vitro) MT4 assay. The note with it: Human immunodeficiency virus 1. Type of test: cell-based.

Take `Fc1cccc2c1Sc1ccccc1NC2=S` [8(iv), 4-Fluoro-10,11-dihydrobenzo[b,f][1,4]thiazepin-11-thione]: the 50% inhibitory concentration (IC50) (commonly the concentration that gives 50% inhibition) in test [1] was 15.4 µM; in test [2], 3.3 µM.
Turning to `S=C1Nc2ccccc2Sc2ccccc21` [Example 3, 10,11-Dihydrodibenzo[b,f][1,4]thiazepin-11-thione], the results for the IC50 in test [1] and in test [2] were 5 µM and 9 µM, respectively.
The like results for `O=[N+]([O-])c1ccc2c(c1)C(=S)Nc1ccccc1S2` [Example 6, 2-Nitro-10,11-dihydrodibenzo[b,f][1,4]thiazepin-11-thione] were, in that order, 14.4 µM and 44.4 µM.
